Publication PMC5066209, “Multiple cellobiohydrolases and cellobiose phosphorylases cooperate in the ruminal bacterium Ruminococcus albus 8 to degrade cellooligosaccharides” (Scientific Reports, 2016)

Columns and labels:
Ra3055 (WT) = molecular target: T1, Ra3055 (WT) (Hominimerdicola alba, UniProt E9SHH5); assay: isothermal titration calorimetry; format: binding; details: 50 mM sodium phosphate, 150 mM NaCl, pH 7.5; single-site fit
T1 construct: gene CUS_6909; full-length multimodular CBM4_9 - Ig-like - GH9 - CBM37

Ra3055 TM1 [1] = molecular target: T2, Ra3055 TM1 (Hominimerdicola alba, UniProt E9SHH5); assay: isothermal titration calorimetry; format: binding; details: 50 mM sodium phosphate, 150 mM NaCl, pH 7.5; single-site fit
T2 construct: gene CUS_6909; truncation without N-terminal CBM4_9 (Ig-like - GH9 - CBM37); pET-46, E. coli

Ra3055 TM2 [2] = molecular target: T3, Ra3055 TM2 (Hominimerdicola alba, UniProt E9SHH5); assay: isothermal titration calorimetry; format: binding; details: 50 mM sodium phosphate, 150 mM NaCl, pH 7.5; single-site fit
T3 construct: gene CUS_6909; truncation without C-terminal CBM37 (CBM4_9 - Ig-like - GH9); pET-46, E. coli

Ra3055 TM3 [3] = molecular target: T4, Ra3055 TM3 (Hominimerdicola alba, UniProt E9SHH5); assay: isothermal titration calorimetry; format: binding; details: 50 mM sodium phosphate, 150 mM NaCl, pH 7.5; single-site fit
T4 construct: gene CUS_6909; truncation to Ig-like - GH9 (no CBM4_9, no CBM37); pET-46, E. coli

Ra3055 TM4 = molecular target: T5, Ra3055 TM4 (Hominimerdicola alba, UniProt E9SHH5); assay: cellobiose release by HPAEC-PAD, Michaelis-Menten fit; format: biochemical; details: 0.01-30 mM cellotetraose, 10 min; pH and temperature of kinetics not stated
T5 construct: gene CUS_6909; GH9 catalytic domain only; pET-46, E. coli
Text: cellobiose release by HPAEC-PAD, Michaelis-Menten fit on Ra3055 TM4

Ra3055 TM2 [4] = molecular target: T3, Ra3055 TM2; assay: as above; format: biochemical; details: 0.01-30 mM cellotetraose, 10 min; pH and temperature of kinetics not stated
Text: cellobiose release by HPAEC-PAD, Michaelis-Menten fit on Ra3055 TM2

Ra3055 TM3 [5] = molecular target: T4, Ra3055 TM3; assay: as above; format: biochemical; details: 0.01-30 mM cellotetraose, 10 min; pH and temperature of kinetics not stated
Text: cellobiose release by HPAEC-PAD, Michaelis-Menten fit on Ra3055 TM3

Ra3055 TM1 [6] = molecular target: T2, Ra3055 TM1; assay: as above; format: biochemical; details: 0.01-30 mM cellotetraose, 10 min; pH and temperature of kinetics not stated
Text: cellobiose release by HPAEC-PAD, Michaelis-Menten fit on Ra3055 TM1

T4 sequence (E9SHH5 entry or part of it): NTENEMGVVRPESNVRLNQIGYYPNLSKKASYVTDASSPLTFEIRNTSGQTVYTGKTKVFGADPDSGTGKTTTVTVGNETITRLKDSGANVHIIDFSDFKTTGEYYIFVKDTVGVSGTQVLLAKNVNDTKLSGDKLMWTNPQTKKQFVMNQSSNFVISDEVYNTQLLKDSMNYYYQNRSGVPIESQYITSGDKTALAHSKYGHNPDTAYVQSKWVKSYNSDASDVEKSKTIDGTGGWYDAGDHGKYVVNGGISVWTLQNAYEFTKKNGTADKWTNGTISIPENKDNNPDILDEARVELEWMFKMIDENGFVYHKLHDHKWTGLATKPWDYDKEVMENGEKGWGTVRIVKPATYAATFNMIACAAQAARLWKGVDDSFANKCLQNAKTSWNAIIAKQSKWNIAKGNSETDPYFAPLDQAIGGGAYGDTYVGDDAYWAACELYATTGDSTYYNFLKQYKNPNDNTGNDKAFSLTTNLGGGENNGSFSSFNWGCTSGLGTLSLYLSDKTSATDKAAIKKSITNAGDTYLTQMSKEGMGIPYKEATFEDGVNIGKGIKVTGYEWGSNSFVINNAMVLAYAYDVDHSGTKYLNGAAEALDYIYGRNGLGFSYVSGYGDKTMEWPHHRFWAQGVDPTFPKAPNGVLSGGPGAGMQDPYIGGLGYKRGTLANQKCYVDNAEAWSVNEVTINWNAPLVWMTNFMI
T3 sequence (E9SHH5 entry or part of it): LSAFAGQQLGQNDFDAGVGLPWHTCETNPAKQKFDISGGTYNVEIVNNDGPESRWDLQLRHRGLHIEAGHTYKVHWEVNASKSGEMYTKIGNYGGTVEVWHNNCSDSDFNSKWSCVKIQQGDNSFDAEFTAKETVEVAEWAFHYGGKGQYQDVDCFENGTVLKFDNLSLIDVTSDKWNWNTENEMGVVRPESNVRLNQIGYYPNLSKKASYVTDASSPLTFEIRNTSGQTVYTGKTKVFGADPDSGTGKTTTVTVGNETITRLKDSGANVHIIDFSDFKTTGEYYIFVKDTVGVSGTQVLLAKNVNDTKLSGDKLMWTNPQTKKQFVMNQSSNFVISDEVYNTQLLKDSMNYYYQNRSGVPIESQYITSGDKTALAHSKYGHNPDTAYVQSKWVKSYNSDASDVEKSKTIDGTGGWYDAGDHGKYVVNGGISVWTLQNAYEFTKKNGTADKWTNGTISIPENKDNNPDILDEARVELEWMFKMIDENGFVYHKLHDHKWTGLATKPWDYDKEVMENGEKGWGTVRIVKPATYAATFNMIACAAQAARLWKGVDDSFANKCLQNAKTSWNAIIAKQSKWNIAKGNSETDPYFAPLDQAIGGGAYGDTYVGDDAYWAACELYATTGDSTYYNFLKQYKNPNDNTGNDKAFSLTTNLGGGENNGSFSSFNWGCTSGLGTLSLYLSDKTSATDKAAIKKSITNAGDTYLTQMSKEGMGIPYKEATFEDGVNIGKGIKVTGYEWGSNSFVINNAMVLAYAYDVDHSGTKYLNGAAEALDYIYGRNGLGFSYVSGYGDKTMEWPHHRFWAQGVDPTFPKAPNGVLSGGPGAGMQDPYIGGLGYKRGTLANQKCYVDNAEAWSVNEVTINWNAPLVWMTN
T2 sequence (E9SHH5 entry or part of it): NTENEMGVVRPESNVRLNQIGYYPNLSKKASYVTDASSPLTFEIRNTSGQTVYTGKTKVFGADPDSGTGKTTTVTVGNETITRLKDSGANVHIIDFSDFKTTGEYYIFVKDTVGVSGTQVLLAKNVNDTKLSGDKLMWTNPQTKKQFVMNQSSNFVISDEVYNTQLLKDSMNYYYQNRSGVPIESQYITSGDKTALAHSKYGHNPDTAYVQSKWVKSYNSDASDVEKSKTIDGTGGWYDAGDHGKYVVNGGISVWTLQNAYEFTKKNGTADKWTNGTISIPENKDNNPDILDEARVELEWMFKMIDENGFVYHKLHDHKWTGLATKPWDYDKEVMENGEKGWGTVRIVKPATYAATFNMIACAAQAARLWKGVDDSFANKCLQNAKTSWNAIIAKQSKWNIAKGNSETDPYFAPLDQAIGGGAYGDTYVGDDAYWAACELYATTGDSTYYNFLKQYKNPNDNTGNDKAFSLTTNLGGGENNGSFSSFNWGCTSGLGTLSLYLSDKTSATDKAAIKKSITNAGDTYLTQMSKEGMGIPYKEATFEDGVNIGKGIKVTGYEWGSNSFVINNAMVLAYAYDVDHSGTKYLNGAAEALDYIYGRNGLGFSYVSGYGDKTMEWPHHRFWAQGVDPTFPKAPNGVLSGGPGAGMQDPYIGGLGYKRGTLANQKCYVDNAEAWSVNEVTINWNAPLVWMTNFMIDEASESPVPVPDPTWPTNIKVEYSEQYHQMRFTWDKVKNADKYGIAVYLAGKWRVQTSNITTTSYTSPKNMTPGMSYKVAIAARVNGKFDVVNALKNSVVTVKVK
T1 sequence (E9SHH5 entry or part of it): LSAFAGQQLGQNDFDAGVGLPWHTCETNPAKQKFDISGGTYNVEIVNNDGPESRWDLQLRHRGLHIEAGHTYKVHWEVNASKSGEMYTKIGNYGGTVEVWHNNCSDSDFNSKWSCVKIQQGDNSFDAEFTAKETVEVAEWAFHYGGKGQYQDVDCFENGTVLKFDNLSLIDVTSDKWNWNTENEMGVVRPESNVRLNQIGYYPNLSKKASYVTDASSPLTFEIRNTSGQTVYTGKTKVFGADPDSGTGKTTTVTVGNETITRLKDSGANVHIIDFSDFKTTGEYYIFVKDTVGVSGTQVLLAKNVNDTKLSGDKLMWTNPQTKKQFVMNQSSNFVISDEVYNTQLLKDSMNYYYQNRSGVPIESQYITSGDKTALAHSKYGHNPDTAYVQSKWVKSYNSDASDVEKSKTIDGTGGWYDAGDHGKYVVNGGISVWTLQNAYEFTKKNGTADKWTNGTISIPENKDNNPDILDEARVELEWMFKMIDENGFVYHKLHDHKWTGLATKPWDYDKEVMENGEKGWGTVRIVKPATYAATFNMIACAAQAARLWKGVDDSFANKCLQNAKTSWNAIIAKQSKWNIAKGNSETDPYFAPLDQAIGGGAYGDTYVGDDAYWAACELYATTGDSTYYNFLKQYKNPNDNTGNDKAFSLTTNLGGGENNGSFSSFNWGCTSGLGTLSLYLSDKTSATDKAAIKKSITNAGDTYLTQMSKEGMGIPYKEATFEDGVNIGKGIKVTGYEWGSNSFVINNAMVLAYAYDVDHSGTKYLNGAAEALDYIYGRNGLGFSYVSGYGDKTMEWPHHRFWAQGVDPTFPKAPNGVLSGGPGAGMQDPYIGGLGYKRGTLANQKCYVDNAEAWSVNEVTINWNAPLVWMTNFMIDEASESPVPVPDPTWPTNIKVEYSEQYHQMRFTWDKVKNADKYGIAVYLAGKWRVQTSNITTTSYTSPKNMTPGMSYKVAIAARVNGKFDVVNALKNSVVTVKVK
T5 sequence (E9SHH5 entry or part of it): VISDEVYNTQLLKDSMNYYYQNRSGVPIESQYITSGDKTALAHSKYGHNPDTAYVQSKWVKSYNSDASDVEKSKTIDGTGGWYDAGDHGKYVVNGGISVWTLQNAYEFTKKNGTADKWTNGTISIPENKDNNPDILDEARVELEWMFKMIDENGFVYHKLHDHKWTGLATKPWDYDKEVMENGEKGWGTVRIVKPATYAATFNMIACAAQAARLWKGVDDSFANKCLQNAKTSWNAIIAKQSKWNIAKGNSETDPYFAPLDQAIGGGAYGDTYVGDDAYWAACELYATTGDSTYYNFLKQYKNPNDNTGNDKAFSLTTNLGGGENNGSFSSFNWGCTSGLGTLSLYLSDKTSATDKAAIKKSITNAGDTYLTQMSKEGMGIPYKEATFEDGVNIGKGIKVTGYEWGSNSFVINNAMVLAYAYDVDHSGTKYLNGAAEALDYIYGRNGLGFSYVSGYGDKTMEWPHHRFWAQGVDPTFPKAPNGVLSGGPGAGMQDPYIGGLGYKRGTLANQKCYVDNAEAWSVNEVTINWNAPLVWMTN

SMILES | Ka (Ra3055 (WT)) | Ka (Ra3055 TM1 [1]) | Ka (Ra3055 TM2 [2]) | Ka (Ra3055 TM3 [3]) | Km (Ra3055 TM4) [mM] | Km (Ra3055 TM2 [4]) [mM] | Km (Ra3055 TM3 [5]) [mM] | Km (Ra3055 TM1 [6]) [mM]
OC[C@H]1O[C@@H](O[C@H]2[C@H](O)[C@@H](O)[C@H](O[C@H]3[C@H](O)[C@@H](O)[C@H](O[C@H]4[C@H](O)[C@@H](O)[C@H](O[C@H]5[C@H](O)[C@@H](O)C(O)O[C@@H]5CO)O[C@@H]4CO)O[C@@H]3CO)O[C@@H]2CO)[C@H](O)[C@@H](O)[C@@H]1O (some centres unmarked) [G5, cellopentaose] | 2.94E4±7.38E3 | 6.38E5±1.57E5 | 3.49E4±4.59E3 | 5.06E5±4.41E4 | – | – | – | –
OC[C@H]1O[C@@H](O[C@H]2[C@H](O)[C@@H](O)[C@H](O[C@H]3[C@H](O)[C@@H](O)[C@H](O[C@H]4[C@H](O)[C@@H](O)C(O)O[C@@H]4CO)O[C@@H]3CO)O[C@@H]2CO)[C@H](O)[C@@H](O)[C@@H]1O (some centres unmarked) [G4, cellotetraose] | – | – | – | – | 7.9 ± 3.6 | 5.6 ± 0.9 | 2.9 ± 0.1 | 4.5 ± 0.3
